Patent US20230174493A1, “Solid Dispersions of Amorphous 3,4-Diphenyl-4,5-Dihydro-1H-Pyrazole Derivatives, Compositions Comprising them and Uses Thereof as Cannabinoid CB1 Receptor Inhibitors” (INVERSAGO PHARMA INC., priority 2020, published 2023)

What was measured:
[1] = Oral bioavailability of crystalline form (development efforts)
[2] = Pharmacokinetic properties in Beagle dogs, single oral dose compared with intravenous administration; conditions: dog, in vivo, 2 mg/kg, fasted
Protocol: Pharmacokinetic properties were measured in Beagle dogs. Administration was done orally and compared with intravenous administration (2 mg/kg, in DMSO/tetraglycol/PEG400/water, 10:20:25:45). Each formulation was tested as a single dose on three (3) animals except for F6(b), which was tested on five (5) animals. Dogs were sampled at times 0, 1 h, 4 h, 8 h, 12 h, 24 h, 36 h, 48 h, and 72 h to give full time-concentration profiles. All tests were carried out with fasted dogs except test on normal dogs using F-SEDDS, which was carried on fed dogs. The results are as presented as an average between the tested animals.

[3] = Solubility of crystalline form (development efforts)

C/C(N)=N/C(=N\S(=O)(=O)c1ccc(C(F)(F)F)cc1)N1C[C@H](c2ccccc2)C(c2ccc(Cl)cc2)=N1 [Compound 1]
Oral bioavailability [1]: very poor oral bioavailability | C0 ([2]; i.v. 2 mg/kg in DMSO/tetraglycol/PEG400/water 10:20:25:45, Normal dogs (about 11 kg)): 2220 ng/mL | C0 ([2]; i.v. 2 mg/kg in DMSO/tetraglycol/PEG400/water 10:20:25:45, Small dogs (about 7.5 kg)): 1820 ng/mL | AUC(0-inf) ([2]; i.v. 2 mg/kg, Normal dogs (about 11 kg)): 15400 ng·h/mL | half-life ([2]; i.v. 2 mg/kg, Normal dogs (about 11 kg), read-out: T½ (converted)): 5.88 h | Solubility [3]: essentially insoluble
